Measured values as given in patent US11925656B2, “Biological total joint replacement” (priority 2014, dated 2024).

Columns and labels:
ADAMTS-5 = ADAMTS-5 in synovial fluid by ELISA, rabbit arthritis model; format: in vivo
From the text: (§1) The study was approved by the Institutional Animal Care and Use Committee (IACUC) of Thomas D. Morris, Inc. 28 New Zeeland White rabbits were selected for the study. Six such were randomly assigned to one of four groups; prophylactic cyanidin-3-glycoside (C3G)(referred to figures as Cl 1-42), prophylactic protocatechuic acid (PCA)(referred to in figures as PCA 1-42), therapeutic C3G (referred to in figures as Cl 42-70), and therapeutic PCA (referred to in figures as PCA 42-70). There were four controls, two each to the prophylactic and therapeutic groups.
(§2) The prophylactic groups were given PROC3G™ by Chromadex™ at a dose of 30 mg/kg of body weight of either C3G or PCA by mouth, 7 times per week for 42 days. The therapeutic groups' treatment was initiated on day 42 with a daily dose of PROC3G™ by Chromadex™ 7 times per week for 4 weeks. The dose of 30 mg of cyanidin-3-glucoside per kg of body weight calculates to be 0.177 millimoles per kg body weight. The dose of PCA was the same in terms of millimoles per kg body weight.
(§3) The experimental rabbits underwent surgery with an intent to create a severe degenerative arthritis by cutting the medial collateral ligament, the anterior cruciate ligament and removing the medial meniscus. A partial thickness laceration was made longitudinally on the lateral femoral condyle for future assessment of potential for repair. The surgery was performed by two licensed veterinarians. One surgeon was very experienced. The other surgeon was a recent graduate.
(§4) At necropsy, the synovial fluid was harvested percutaneously and upon arthrotomy. The synovium was harvested from posterior compartment. The patella and adjacent synovium was procured as a separate specimen as was the medial and lateral condyle.
(§5) The synovial fluid and half of the synovium was frozen and sent to BioBoston Laboratory for chemical analysis. The other half of the synovium and bone was sent to McClinchery Histology in Stockbridge, Mich. for histological preparation and staining. […]
(§6) Synovial Fluid—Detected by ELISA

ADAMTS-5 gene expression = ADAMTS-5 gene expression in synovium by real-time PCR, rabbit arthritis model; format: in vivo; details: therapeutic groups, oral days 42-70, vs control
From the text: as §1, §2
(§7) The experimental rabbits underwent surgery with an intent to create a severe degenerative arthritis by cutting the medial collateral ligament, the anterior cruciate ligament and removing the medial meniscus. […]
Synovial Tissue (Synovium)—Gene Expression Level Detected by Real-Time PCR

TIMP-1 = TIMP-1 in synovial fluid by ELISA, rabbit arthritis model; format: in vivo; details: statistical significance not evident
From the text: as §1, §2, §7, §6

lubricin = assay: Lubricin in synovium by ELISA, rabbit arthritis model; format: in vivo
From the text: as §1, §2, §3, §4, §5
(§8) Synovial Tissue (Synovium)—Detected by ELISA

IGF-1 = IGF-1 in plasma, rabbit arthritis model; format: in vivo; details: control group 25 PG/ML
From the text: as §1, §2, §3
Blood testing was performed prior to necropsy on C3G, PCA, glucose, MMP-3 and IGF-1 to assess any systemic effects.

MMP3 = MMP3 in synovial fluid by ELISA, rabbit arthritis model; format: in vivo; details: therapeutic groups, oral days 42-70, vs control
From the text: as §1
(§9) The prophylactic groups were given PROC3G™ by Chromadex™ at a dose of 30 mg/kg of body weight of either C3G or PCA by mouth, 7 times per week for 42 days. The therapeutic groups' treatment was initiated on day 42 with a daily dose of PROC3G™ by Chromadex™ 7 times per week for 4 weeks. The dose of 30 mg of cyanidin-3-glucoside per kg of body weight calculates to be 0.177 millimoles per kg body weight. The dose of PCA was the same in terms of millimoles per kg body weight. […]
MMP3 is known as matrix metallopeptidase 3, or stromelysin 1 or progelatinase. […] See FIG. 2C. • Synovial Tissue (Synovium)—Detected by ELISA • MMP-3 levels were reduced in all four groups. See FIG. 9B. • Synovial Tissue (Synovium)—Gene Expression Level Detected by Real-Time PCR • MMP-3 gene expression was decreased in all groups. […]

C-reactive protein (CRP) = C-reactive protein (CRP) in plasma after knee surgery; format: in vivo, rabbit
Description: C-reactive protein (CRP) is a protein found in the blood plasma, the levels of which rise in response to inflammation (i.e., C-reactive protein is an acute-phase protein). Its physiological role is to bind to phosphocholine expressed on the surface of dead or dying cells (and some types of bacteria) in order to activate the complement system via the C1Q complex. CRP rises within two hours of the onset of inflammation, up to a 50,000-fold, and peaks at 48 hours. […] CRP is thus a screen for inflammation.
Knee surgery was performed to create a severe irreparable degenerative knee joint, which in turn elevated the CRP in the plasma to average of […]. A historical normal amount of CRP is 3.15 micrograms/mL. See Sun H, et al., Am J Pathol. October 2005; 167(4): 1139-1148. Rabbit CRP levels are close to the mean values of healthy middle-aged humans (2.82 mg/L) reported in the literature. See Ockene I S, et al., Clin Chem. 2001; 47:444-450.
The controls in the study were animals that had surgery and received no treatment. The prophylaxis test groups had the surgery and received 6 weeks of oral C-3-G or PCA 7 times per week as described in example 1. The therapeutic treatment group had surgery, received no treatment for 41 days and then at day 42 received oral C-3-G or PCA 7 times per week as described in example 1.

MMP-3 = MMP-3 expression in cartilage, histochemical staining and scoring, rabbit arthritis model; format: in vivo
From the text: as §1, §2, §3, §4
(§10) The synovial fluid and half of the synovium was frozen and sent to BioBoston Laboratory for chemical analysis. The other half of the synovium and bone was sent to McClinchery Histology in Stockbridge, Mich. for histological preparation and staining. Patellar slides were sent to BioBoston Contract Laboratories for histochemical staining and ICRS grading. Sample slides were examined for Lubricin at Myron Spector laboratory.
MMP3 is known as matrix metallopeptidase 3, or stromelysin 1 or progelatinase. Proteins of the matrix metalloproteinase (MMP) family are involved in the breakdown of 20 extracellular matrix in normal physiological processes, such as embryonic development, reproduction, and tissue remodeling, as well as in disease processes, such as arthritis and metastasis. […] See FIG. 2C. • Synovial Tissue (Synovium)—Detected by ELISA • MMP-3 levels were reduced in all four groups. See FIG. 9B. • Synovial Tissue (Synovium)—Gene Expression Level Detected by Real-Time PCR • MMP-3 gene expression was decreased in all groups. See FIG. 13A. • Histochemical Scoring Analysis

TNF-alpha = TNF-alpha in synovial fluid by ELISA, rabbit arthritis model; format: in vivo; details: therapeutic groups, oral 4 weeks, vs control; not statistically significant
From the text: as §1, §2, §7, §6

IL-1 beta = IL-1 beta in synovium by ELISA, rabbit arthritis model; format: in vivo; details: therapeutic groups, oral days 42-70, vs control
From the text: as §1, §9
Interleukin-1 beta (IL-1p) also known as catabolic, is a cytokine protein. […] Increased production of IL-1B causes a number of different auto-inflammatory syndromes. • Synovial Fluid—Detected by ELISA • Levels of IL-1 beta were decreased in all groups. See FIG. 2A. • Synovial Tissue (Synovium)—Detected by ELISA

TGF-beta = TGF-beta in synovium by ELISA, rabbit arthritis model; format: in vivo; details: therapeutic group, oral days 42-70, vs control
From the text: as §1
The prophylactic groups were given PROC3G™ by Chromadex™ at a dose of 30 mg/kg of body weight of either C3G or PCA by mouth, 7 times per week for 42 days. The therapeutic groups' treatment was initiated on day 42 with a daily dose of PROC3G™ by Chromadex™ 7 times per week for 4 weeks. […]
TGF-β induces apoptosis in numerous cell types. […] It is a type of cytokine which plays a role in immunity, cancer, bronchial asthma, heart disease, diabetes, hereditary hemorrhagic telangiectasia, Marfan syndrome, vascular Ehlers-Danlos syndrome Loeys-Dietz syndrome, Parkinson's disease, and AIDS. • Synovial Fluid—Detected by ELISA • TGF-beta was decreased in all groups. See FIG. 2B. • Synovial Tissue (Synovium)—Detected by ELISA • TGF-beta was increased in the C3G therapeutic group.

MMP-13 = MMP-13 in synovium by ELISA, rabbit surgically induced knee arthritis; format: in vivo; details: vs untreated control, not statistically significant
From the text: as §1, §2, §3, §4, §10, §8

MMP-1 = MMP-1 in synovium by ELISA, rabbit arthritis model; format: in vivo; details: therapeutic group, oral days 42-70, vs control
From the text: as §1, §2
as §3, with “The surgery was performed by two licensed veterinarians. One surgeon was very experienced. The other surgeon was a recent graduate.” left out

lymphocytes = assay: Number of lymphocytes in synovial fluid, rabbit arthritis model; format: in vivo; details: therapeutic groups, oral days 42-70, vs control
From the text: as §1, §2, §3, §4
In addition to testing for the increase or decrease of various factors and cytokines, tests were run to count the number of white blood cells, including polymorphonuclear leukocytes (PMN), macrophages (Mac) and lymphocytes (Lym). […]

[1] = prophylactic groups, oral days 1-42, vs control
[2] = therapeutic groups, oral days 42-70, vs control
[3] = prophylactic groups, oral days 1-42
[4] = therapeutic groups, oral days 42-70

OC[C@H]1O[C@@H](Oc2cc3c(O)cc(O)cc3[o+]c2-c2ccc(O)c(O)c2)[C@H](O)[C@@H](O)[C@@H]1O [C3G, cyanidin-3-glucoside, reference compound]
ADAMTS-5 in synovial fluid (ADAMTS-5; [1]): decreased
ADAMTS-5 in synovial fluid (ADAMTS-5; [2]): decreased
ADAMTS-5 gene expression in synovium (ADAMTS-5 gene expression): decreased
TIMP-1 levels in synovial fluid (TIMP-1; [1]): elevated
TIMP-1 levels in synovial fluid (TIMP-1; [2]): elevated
lubricin in synovium (lubricin; [1]): increased
lubricin in synovium (lubricin; [2]): increased
IGF-1 in the plasma (IGF-1; [3]): 15.8 pg/mL
IGF-1 in the plasma (IGF-1; [4]): 28.5 pg/mL
MMP3 in synovial fluid (MMP3): decreased
CRP, an indicator of inflammation (C-reactive protein (CRP); given by oral route immediately after injury): kept to normal levels
plasma CRP level (C-reactive protein (CRP); prophylaxis test group, 6 weeks oral treatment from surgery, untreated control at 42 days 8.8 mg/mL): 3.1 micrograms/mL
plasma CRP level (C-reactive protein (CRP); therapeutic group, no treatment for 6 weeks after surgery, then 4 weeks oral treatment): 28.3 mg/mL
histochemical staining for the presence of MMP-3 in cartilage (MMP-3; [3]): very minimal positive stain
MMP-3 expression in cartilage (MMP-3; [1]): reduced
histochemical staining for the presence of MMP-3 in cartilage (MMP-3; [4]): no staining
MMP-3 expression in cartilage (MMP-3; [2]): reduced
TNF-alpha levels in synovial fluid (TNF-alpha): slight increase
levels of IL-1 beta in synovium (IL-1 beta): decreased
TGF-beta in synovium (TGF-beta): increased
MMP-13 levels in synovium (MMP-13; prophylactic groups, oral 7 times per week days 1-42 (C3G 30 mg/kg, PCA 26.4 mg/kg)): increased slightly
MMP-13 levels in synovium (MMP-13; therapeutic groups, oral 7 times per week days 42-70 (C3G 30 mg/kg, PCA 26.4 mg/kg)): slightly decreased
MMP-1 in synovium (MMP-1): decrease
number of lymphocytes in synovial fluid (lymphocytes): decreased
